The results in this text go back to a melting point compilation (Tetko et al.; mined from patent text by program, amines drawn as free bases though some values may be those of a salt).

`CC(C)c1cc(C(C)C)c2sc3ccccc3c(=O)c2c1` gave a melting point of 74 to 76 °C.

In turn, `O=C(O)CCc1cc2nc(C(F)(F)F)ccc2n1S(=O)(=O)c1cccc2cccnc12` registered a melting point of 216 to 217 °C.

Take `NCC(O)COc1ccc(OCC(O)CN)cc1` (stereo unspecified): the melting point was 128 to 132 °C.

The molecule `O=C(c1ccc(F)c(F)c1)N1CCC[C@H](c2nc(-c3ccccc3)no2)C1` yielded a melting point of 149 to 151 °C.

In the case of `COc1cc(CNC(=O)c2nc3scc(COc4ccc(C(=O)O)cc4)c3c(=O)[nH]2)ccc1F`, the melting point is 276 to 281 °C.

Take `COc1ccncc1-c1cncc(OC2SCC(O)C(O)C2O)c1` (stereo unspecified): the melting point was 154 °C.

Molecule `COC(=O)CCCC(C)(C)c1ccc(O)c(C(C)=O)c1O` yielded a melting point of 94 to 97 °C.

In turn, `O=c1[nH]c(-c2ccccc2)c(-c2ccncc2)o1` had a melting point of 300 °C.

Molecule `COc1ccc(ONc2ccccc2)cc1` had a melting point of 70 to 73 °C.

As for `O=C(NCc1cccnc1)c1sc(N2CCN(Cc3ccc(F)cc3)C2=O)nc1C(F)(F)F`, the melting point lay within 161 to 162 °C.

Turning to `CC(C)OCCOc1c(-c2ccc(S(C)(=O)=O)cc2)cnn(-c2ccc(F)c(F)c2)c1=O`, the melting point fell in the range of 105 to 107 °C.

The molecule `CC(C)(C)CC(=O)c1ccc(OCC(=O)O)c(Cl)c1Cl` yielded a melting point of 145 to 146 °C.

Molecule `Cc1ccc(S(=O)(=O)NCCCCOc2ccc(-n3cnnn3)cc2)cc1` displayed a melting point of 127 to 128 °C.

On to `c1ccc(-c2nc3cnccc3[nH]2)cc1`, for which the melting point was 225 to 226 °C.

`Cc1ccc2sc(-c3ccccn3)nc(=O)c2c1`: the melting point fell in the range of 220 to 221 °C.

The molecule `Oc1ccccc1-c1ccc[nH]1` had a melting point of 100 to 101 °C.

The molecule `CC(C)c1ocnc1C(=O)O` displayed a melting point of 136 to 137 °C.

Molecule `Cc1nc(NC(=O)OCC[Si](C)(C)C)cs1` came in with a melting point of 101 to 103 °C.

As to `COCCOC(=O)C1=C(C)Nc2cc[nH]c(=O)c2C1c1ccccc1[N+](=O)[O-]` (stereo unspecified), the melting point was 265 °C.

In turn, `CC(C)(C)c1cc(Cn2nc(-c3ccccc3)oc2=O)cc(C(C)(C)C)c1O` had a melting point of 164 °C.

Regarding `NC(c1ccccc1)C12CC(CN1Cc1ccccc1)C2` (stereo unspecified), the melting point was in the range of 63.5 to 64 °C.

With `COC(=O)[C@@H]1CSC(=S)N1CC(C)(C)SCc1ccc(OC)cc1`, the melting point is 125 to 127 °C.

In the case of `O=C(NC(CS)Cc1ccccc1)N1CCN(c2cccc(C(F)(F)F)c2)CC1` (single isomer, unassigned; (+)), the melting point fell in the range of 130 to 132 °C.

With `COc1ccc(C=CC=O)cc1OCc1nc(-c2ccccc2)oc1C`, the melting point is 136 to 137 °C.

Turning to `CCC(=O)OC(C)c1ccc(-c2ccc(OCc3ccccc3)cc2)cc1` (single isomer, unassigned; (+)), the melting point is 125 °C.

`O=S(=O)(CCN1CCOCC1)Nc1cc(C(c2cc(F)ccc2F)S(=O)(=O)c2ccc(Cl)cc2)c(Cl)cn1` (stereo unspecified) gave a melting point of 219 to 221 °C.

Molecule `CCS(=O)(=O)c1nc2c(cc1F)c(=O)c(C(=O)O)cn2C1CC1` had a melting point of 240 to 242 °C.

In the case of `CCOC(=O)C1=C(C)NC(C)=C(C(=O)OCCN2CCN(C(c3ccccc3)c3ccccc3)CC2)C1c1cccc(Cl)c1` (stereo unspecified), the melting point is 72 to 75 °C.

Molecule `CC#CCOc1cccc(S(=O)(=O)N(C)C(C(=O)NO)c2ccc(OCCCNC(=O)OCC)cc2)c1` (stereo unspecified) registered a melting point of 60 to 62 °C.

`NC/C=C/COc1ccc(-n2ccnc2)cc1` gave a melting point of 81 to 83 °C.

Take `COc1c2c(c(OC)c(OC)c1OC)CC(CCCCCCCCNC(C)=O)C2`: the melting point was in the range of 57 to 61 °C.

For `C=CCNC(=O)n1nc(-c2ccccc2)cc1NC(=O)CC(=O)C(F)(F)F`, the melting point lay within 114 to 116 °C.

`CSC(Nc1cccnc1)=C(C#N)C#N`: the melting point was 180 to 181 °C.

In the case of `COc1cc2ccc(C=O)cc2cc1OC`, the melting point was in the range of 87 to 88 °C.

In the case of `CN(Cc1ccc(N)cc1)C1CCOCC1`, the melting point lay in the range of 93 to 94 °C.

For the molecule `COc1ccc(NC(=O)C#Cc2ccc(CN3CCCCC3)cc2)cc1`, the melting point is 170 °C.

The molecule `c1ccc2sc(SSN3CCCCCC3)nc2c1` showed a melting point of 65 to 67 °C.

As for `CCN(CC)CCCN1c2cc(C)c(C)cc2N(C)C(=O)c2c(C)cc(C)nc21`, the melting point was in the range of 104 to 106 °C.

`Clc1nc(-c2cccnc2)[nH]c1Cl`: the melting point fell in the range of 237 to 238 °C.

As for `CC12CC(N3CCC(O)CC3)C(O)CC1CCC1C2CCC2(C)C(O)C(N3CCC4(CC3)OCCO4)CC12` (stereo unspecified), the melting point was 199 to 201 °C.

`O=c1[nH][nH]c(=O)n1-c1cc(Cl)cc(Cl)c1` gave a melting point of 260 °C.

Molecule `CN1c2ccccc2CN(C(=O)c2ccc(-c3ccccc3)cc2)c2ccccc21` came in with a melting point of 198 to 201 °C.

In the case of `COC(=O)c1ccc2c(c1)CN(S(=O)(=O)c1ccc(C)cc1)C2`, the melting point lay in the range of 164 to 166 °C.

For `CCCn1c(=O)c2[nH]cnc2n(CCC)c1=O`, the melting point is 201 to 205 °C.

As for `O=c1n(-c2cc(O)c(Cl)cc2Cl)nc2n1CCCC2`, the melting point is 211 to 212 °C.

In turn, `Cc1nc(N2CCc3ccccc3CC2)c(C#N)c(=O)n1CCO` gave a melting point of 164 to 168 °C.

Molecule `CC(C)[C@@H]1N(C(=O)OCc2ccccc2)CO[C@]1(O)C(F)(F)F` came in with a melting point of 73 to 74 °C.

The molecule `CC(Sc1nc(N)cc(Cl)n1)c1cc2ccoc2cn1` (stereo unspecified) returned a melting point of 187 to 188 °C.

`CC(C)(C)NC(=O)c1nn(-c2cc(F)c(F)cc2F)c2c1C1CCC2C1` (stereo unspecified) registered a melting point of 127 to 130 °C.

In turn, `CCc1ncnc2cc(OC)c(OCC3CO3)cc12` (stereo unspecified) came in with a melting point of 120 to 122 °C.

Take `CNC(=O)N(C)C(CCSC)P(=O)(O)O` (stereo unspecified): the melting point fell in the range of 164 to 167 °C.

`Cc1ccc(O[C@@H]2CNCC[C@H]2O)cc1C` (relative stereo) yielded a melting point of 98 to 99 °C.

As to `CC(O)c1ccccc1N` (stereo unspecified), the melting point was in the range of 50 to 52 °C.

In turn, `CO[C@H]1CC[C@H](N(C)C(=O)c2ccc3nonc3c2)CC1` registered a melting point of 143 to 144 °C.

For the molecule `CCOC(=O)Nc1cc2c(cn1)[nH]c1ccccc12`, the melting point is 222 to 224 °C.

Turning to `Cn1c(C(F)(F)F)n[nH]c1=O`, the melting point was determined as 64 °C.

`CC1(C)C(C=CC(=O)O)C1C(=O)OCc1ccccc1` (stereo unspecified) showed a melting point of 69 °C.

`COc1nccc(C)c1NC(=O)c1cccnc1NC1CC1` showed a melting point of 151 to 152 °C.

`NC(=O)/C=C/c1ccc(C(c2cc(F)ccc2F)S(=O)(=O)c2ccc(Cl)cc2)nc1` (stereo unspecified) displayed a melting point of 219 to 220 °C.

In the case of `COc1ccc(CN(C)CCCc2ccc(NC(=O)c3cccc4c(=O)c5cc(F)ccc5sc34)cc2)cc1OC`, the melting point came out at 160 °C.

Turning to `O=C1SCNc2sccc21`, the melting point was 153 to 155 °C.

Take `O=C(N1CCc2ccc(Cl)c(O)c2CC1)C(F)(F)F`: the melting point is 133 to 134 °C.

On to `Cc1cc(F)ccc1NC(=O)c1cc([N+](=O)[O-])ccc1NC(=O)CF`, for which the melting point lay within 237 to 239 °C.

`CCOC(=O)N1C(=O)OC(c2c(Cl)cccc2OC)C1=O` (stereo unspecified) showed a melting point of 196 to 200 °C.

For the molecule `CCC(C)(Oc1ccc(OCc2cc(-c3ccc(OCc4ccccc4)cc3)no2)cc1)C(=O)O` (stereo unspecified), the melting point was in the range of 132 to 134 °C.

Take `Cc1cc(-c2nc3ccccc3c(=O)n2-c2ccc(C(C)C)cc2)cc(C)c1OCCO`: the melting point is 160 to 162 °C.

`O=C(CCCc1ccc(-c2ccc(Cl)cc2)cc1)c1ccc(CN2CCCC2)cc1`: the melting point fell in the range of 114 to 115 °C.

The molecule `CC(=O)NC1CCC(Nc2ncc3c(N)cc(=O)n(CCCO)c3n2)CC1` (stereo unspecified) gave a melting point above 300 °C.

Molecule `CCn1cc(C2(c3cccc(-c4cccnc4F)c3)N=C(N)N(C)C2=O)cc1C=O` (stereo unspecified) had a melting point of 152 to 156 °C.

Molecule `CCOc1cc2c(cc1OCC)[C@@H]1CCCC[C@@H]1N=C2c1ccc(O)cc1` (racemic) yielded a melting point of 232 to 234 °C.

On to `COCCN1c2ccc([N+](=O)[O-])cc2CS1(=O)=O`, for which the melting point was 130 to 132 °C.

`Nc1[nH]ncc1-c1cccc(N2CCOCC2)c1` yielded a melting point of 166 to 168 °C.

With `O=[N+]([O-])c1ccc2nc3c(nc2c1)CCCC3`, the melting point is 175 to 178 °C.

As for `O=C(CCCCl)c1ccc2c(c1)Cc1cc(C(=O)CCCCl)ccc1-2`, the melting point is 172 to 175 °C.

Regarding `O=C(O)COc1cc(Br)c2oc3cccc(F)c3c(=O)c2c1`, the melting point lay within 220 to 223 °C.

With `CCOC(=O)c1cnc([N+](=O)[O-])n1C`, the melting point lay in the range of 65 to 66 °C.

For `O=C(Nc1nncs1)C(=O)c1cn(Cc2ccc(F)cc2)c2ccccc12`, the melting point was 218 to 220 °C.

As for `COc1cc(CNc2n[nH]c3ncnc(Nc4cccc(Cl)c4)c23)ccc1O`, the melting point is 223 to 225 °C.

In turn, `Clc1cc(-c2ccc3c(c2)CCO3)nc2ccccc12` had a melting point of 130 to 132 °C.

Turning to `CC(C)CNC(=O)C(C)NC(=O)C(C)NC(=O)C(C)NC(=O)OCc1ccccc1` (stereo unspecified), the melting point is 260 to 262 °C.

In turn, `O=[N+]([O-])c1ccc(CN2CCNS2(=O)=O)cc1` gave a melting point of 115 to 117 °C.

In the case of `CS(=O)(=O)c1cc(C(=O)O)c(NCc2ccccc2)cc1Cl`, the melting point is 179 °C.

Regarding `C/C(=C\c1ccc(C(=O)O)cc1)c1ccc2c(c1)N(C)CCN2C`, the melting point lay in the range of 203 to 205 °C.

Molecule `COC(=O)Cc1cc2c(s1)NC(=O)C(C)N=C2c1ccccc1Cl` (stereo unspecified) displayed a melting point of 185 to 190 °C.

Consider `COc1ccc(C(CC(=O)NCc2ccccc2)N2C(=O)c3ccccc3C2=O)cc1OC` (stereo unspecified), for which the melting point was in the range of 208 to 210 °C.

Molecule `Cn1cncc1C(O)c1ccc2c(c1)c(-c1cccc(Cl)c1)nc1nnnn12` (stereo unspecified) showed a melting point of 190 °C.

In the case of `Cc1cc(C)cc(NC(=N)Nc2ccccc2C(F)(F)F)c1`, the melting point was determined as 127 °C.

As for `COC(=O)c1ccc(C(=S)Nc2ccccc2OC)cc1`, the melting point is 105 to 107 °C.

Consider `O=[N+]([O-])c1cc(Cl)cnc1N1CCN(C/C=C/c2ccc(C(F)(F)F)cc2)CC1`, for which the melting point lay in the range of 129 to 132 °C.

The molecule `CCOC(=O)COC(=O)c1cc(NC(=O)OCc2ccccc2)ccc1OCC(=O)OCC` registered a melting point of 77 to 78 °C.

For the molecule `CCSc1nc2c(C)ccnc2n1Cc1ccc(-n2cc(Cl)cc2-c2nnn[nH]2)cc1`, the melting point is 88 to 90 °C.

In general, melting point refers to the temperature, or range, at which the solid turns liquid.
